According to patent US20190352341A1, “MODIFIED PEPTIDES AND THEIR USE FOR TREATING SYSTEMIC LUPUS ERYTHEMATOSUS” (IMMUPHARMA FRANCE SA, priority 2018, published 2019):
“And” between values parts separate entries of the source, which are not always exact repeats. Identical values can stand only once. Numbered stars: 1 amine (or outer) side, 2 acyl side, 3 side chain; on linkers, the order of the positions; unused ones are H or OH. Square brackets hold non-standard residues; d marks the D form. Peptide text beside a SMILES is read from it. ξ: configuration not given here. X1 = CSCC[C@H](NC(=N)[C@H](Cc1c[nH]cn1)N[*:1])C(=O)[*:2]; pS = N[C@@H](COP(=O)(O)O)C(=O)O; Ile(3ξ) = CCC(C)[C@H](N)C(=O)O

Experiments:
[1] = Stability of the peptides at 37° C. (HPLC peak area); assay type: physicochemical; conditions: for 95% of stability (predicted): time to 95% from linear equation; for Stability (%) Linear equation: slope: y = stability %, x = days; for Stability (%): 10% mannitol
Experimental: The stability of the peptide SEQ ID NO: 1 in which the serine at position 10 is phosphorylated and the methionine at position 4 is oxydized (P140(MO)), and the peptide SEQ ID NO: 1 in which the serine at position 10 is phosphorylated (P140) was measured at 37° C., in a solution of 10% (v/v) mannitol. For each peptide, 3 concentrations have been tested: 200, 100 and 50 μg/mL.
At the indicated time, the integrity of P140 and P140(MO) peptides was measured in saline by high-performance liquid chromatography from the area of the peak corresponding to the intact peptide.
Stability is measured by using the HPLC peak surface.

Balb/c mice = test: 31-day HDM-induced asthma model, BAL cells; assay type: in vivo, mouse; conditions: for B cells / DCs / Eosinophils / Macrophages / Neutrophils / T cells / Total cells: BAL, HDM-sensitized, P140 i.v. 4 mg/kg day 25, individual mice
Experimental: The aim of this study was to evaluate the effect of the P140 phosphopeptide administered systemically (intravenously) in a 31-day model of HDM-induced asthma in mice. The P140 phosphopeptide was solubilized in sterile water (Braun) and 10× concentrate sterile saline was added to adjust osmolarity to 300 mosm. Osmolarity was controlled with a micro osmometer (Löser, type 15) and validated (303 mosm). The P140 phosphopeptide was used in vivo at the dose of 4 mg/kg by intravenous (i.v.) routes. Control animals received equivalent volumes (2 ml/kg) of saline (Table 8).
Nine-week-old male Balb/c mice were sensitized by intranasal (i.n.) administration of HDM extract (Stallergenes): 1 μg in 25 μl saline on days 0, 1, 2, 3, 4, and 10 μg on days 14 and 21. Mice were challenged by i.n. administration of HDM (1 μg) and/or saline on days 28, 29 and 30. Mice were treated by i.v. injection (2 ml/kg) of P140 or solvent on day 25 (see FIG. 14).
BAL was performed after airway responsiveness measurement twenty-four hours after HDM challenge as described (Daubeuf et al. 2012). Mice were anaesthetized IP (Ketamine 150 mg/kg—Xylasine 10 mg/kg). Blood was collected from the heart, centrifuged at 10,000 g for 2 min and serum stored at −20° C.
After semi-excision of the trachea, a plastic cannula was inserted, and airspace washed with 0.5 ml of 0.9% NaCl injected with a 1 ml syringe. This procedure was performed 10 times. The initial concentrated supernatant of the 2 first lavages (volume=2×0.5 ml administered, approximately 0.5 ml recovered) was collected for cytokine measurements. The remaining BAL fluid was centrifuged (300 g for 5 min, 4° C.), and cell pellets pooled. The cell pellet was suspended in 500 μl of 0.9% NaCl and used for total cell counts evaluated on a Muse® Cell Analyser (Millipore). Differential cell counts were assessed by flow cytometry (LSRII® cytometer, BD Bioscience). BAL cells were added with FCblock (0.5 μl, 553142, BD Bioscience) in a black microplate, incubated for 20 min at room temperature. Then, marker antibodies were added: CD11c-FITC (557400, BD bioscience), Gr-1-PeeFluor610 (61-5931-82, eBioscience), F4/80-PE (12-4801-82, eBioscience), CD11b-APC-Cy7 (557657, BD bioscience), CD45-AlexaFluor700 (103128, BioLegend), CD3-BV605 (564009, BD bioscience), CD19-PE-Cy7 (552854, BD bioscience). Antibodies were incubated with BAL cells for 30 min at room temperature before DAPI (5 μl, BD bioscience) addition, and flow cytometry was performed immediately.
All mice were sensitized to HDM on days 0, 1, 2, 3, 4, 14, 21, and challenged either with saline ([…]) or HDM (challenge with allergen). Results are presented as means±SEM. Differences between groups were tested for statistical significance using Student's t test for inflammatory cells and a two-way ANOVA followed by Bonferroni post-test for airway responses.

MRL/lpr mice = test: Survival analysis in MRL/lpr mice; assay type: in vivo, mouse; conditions: female MRL/lpr mice, peptide intravenously from five weeks of age; NaCl control 25 weeks
Experimental: It has been determined that this mouse strain carries a mutation in the fas gene. Also, the MRL/lpr is a useful model to study behavioural and cognitive deficits found in autoimmune diseases and the efficacy of immunosuppressive agents [Monneaux et al., 2003, Eur. J. Immunol. 33, 287-296].
Five-week-old female MRL/lpr mice received P140 or peptide P140(MO) intravenously as described (Monneaux et al., 2003, Eur. J. Immunol. 33, 287-296). All experimental protocols were carried out with the approval of the local Institutional Animal Care and Use Committee (CREMEAS). As control, mice were injected with NaCl.
Twenty mice were used for each peptide or NaCl.
Statistical tests were performed using GraphPad Prism version 5.0. The two-way ANOVA test was used to analyze statistical significance of proteinuria differences between control and peptide-treated groups of mice. Survival of control and P140 analogue-treated female MRL/lpr mice was analyzed by the Kaplan-Meier method, and the significance of differences was determined by the log-rank test. For the other variables, statistical significance was assessed using the Student's t-test. p values less than 0.05 were considered significant.

[2] = saline-challenged (chronic asthma)
[3] = chronic asthma (saline-challenged), P140 4 mg/kg i.v. day 25
[4] = chronic asthma (saline-challenged), P140 4 mg/kg i.v. day 25, non-significant

Question: With `CCC(C)[C@H](NC(=O)[C@H](Cc1ccccc1)NC(=O)[C@H](C)NC(=O)[C@H](Cc1ccc(O)cc1)NC(=O)CNC(=O)[C@H](CCCNC(=N)N)NC(=O)[C@@H]1CCCN1C(=O)[C@H](CCCCN)NC(=O)CNC(=O)[C@H](COP(=O)(O)O)NC(=O)[C@H](CCCNC(=N)N)NC(=O)[C@H](CCCCN)NC(=O)[C@H](CO)NC(=O)[C@H](Cc1ccc(O)cc1)NC(=O)[C@@H](NC(=O)[C@H](CCSC)NC(=N)[C@H](Cc1c[nH]cn1)NC(=O)[C@@H](NC(=O)[C@@H](N)CCCNC(=N)N)C(C)CC)C(C)C)C(=O)N[C@@H](CCC(=O)O)C(=O)N[C@@H](Cc1ccc(O)cc1)C(=O)O` (some centres unmarked) [Compound P140] (H-R[Ile(3ξ)][X1]VYSKR[pS]GKPRGYAF[Ile(3ξ)]EY-OH) as the compound, how does the “Stability (%) Linear equation: intercept” value ([1]; 50 μg/mL) read?
Answer: Its value is 98.299.

Question: And the “95% of stability (predicted)” value ([1]; 50 μg/mL)?
Answer: Its value is 1 months.

Question: What about the “Stability (%) Linear equation: slope” value ([1]; 50 μg/mL) of the same compound?
Answer: The value was “y = −0.099x +”.

Question: And the “Stability (%) Linear equation: intercept” value ([1]; 100 μg/mL)?
Answer: The value was 99.25.

Question: What about the “95% of stability (predicted)” value ([1]; 100 μg/mL) of the same compound?
Answer: The value was 2 months.

Question: And the “Stability (%) Linear equation: slope” value ([1]; 100 μg/mL)?
Answer: Its value is “y = −0.0612x +”.

Question: What about the “Stability (%) Linear equation: intercept” value ([1]; 200 μg/mL) of the same compound?
Answer: Its value is 99.535.

Question: What about the “95% of stability (predicted)” value ([1]; 200 μg/mL) of the same compound?
Answer: Its value is 6 months.

Question: And the “Stability (%) Linear equation: slope” value ([1]; 200 μg/mL)?
Answer: The value was “y = −0.0238x +”.

Question: And the “Stability (%)” value ([1]; 50 μg/mL, day 0)?
Answer: Its value is 100%.

Question: And the “Stability (%)” value ([1]; 50 μg/mL, day 20)?
Answer: The value was 95.5%.

Question: And the “Stability (%)” value ([1]; 50 μg/mL, day 40)?
Answer: Its value is 93.2%.

Question: And the “Stability (%)” value ([1]; 50 μg/mL, day 60)?
Answer: Its value is 91.5%.

Question: And the “Stability (%)” value ([1]; 50 μg/mL, day 80)?
Answer: The value was 90.3%.

Question: What about the “Stability (%)” value ([1]; 50 μg/mL, day 100) of the same compound?
Answer: The value was 89.6%.

Question: What about the “Stability (%)” value ([1]; 100 μg/mL, day 0) of the same compound?
Answer: The value was 100%.

Question: What about the “Stability (%)” value ([1]; 100 μg/mL, day 20) of the same compound?
Answer: Its value is 97.5%.

Question: And the “Stability (%)” value ([1]; 100 μg/mL, day 40)?
Answer: The value was 96.2%.

Question: What about the “Stability (%)” value ([1]; 100 μg/mL, day 60) of the same compound?
Answer: Its value is 95.5%.

Question: And the “Stability (%)” value ([1]; 100 μg/mL, day 80)?
Answer: Its value is 94.5%.

Question: What about the “Stability (%)” value ([1]; 100 μg/mL, day 100) of the same compound?
Answer: Its value is 93.4%.

Question: And the “Stability (%)” value ([1]; 200 μg/mL, day 0)?
Answer: Its value is 100%.

Question: What about the “Stability (%)” value ([1]; 200 μg/mL, day 20) of the same compound?
Answer: Its value is 98.7%.

Question: What about the “Stability (%)” value ([1]; 200 μg/mL, day 40) of the same compound?
Answer: The value was 98.5%.

Question: What about the “Stability (%)” value ([1]; 200 μg/mL, day 60) of the same compound?
Answer: Its value is 97.9%.

Question: What about the “Stability (%)” value ([1]; 200 μg/mL, day 80) of the same compound?
Answer: The value was 97.6%.

Question: And the “Stability (%)” value ([1]; 200 μg/mL, day 100)?
Answer: Its value is 97.4%.

Question: What about the B cells (Balb/c mice; HDM-challenged (HDM + P140)) of the same compound?
Answer: Its B cells is 59 092 and 102 246 and 42 085 and 25 443 and 116 814 and 115 000 and 53 947 and 170 980.

Question: And the DCs (Balb/c mice; HDM-challenged (HDM + P140))?
Answer: Its DCs is 1 034 and 2 238 and 1 793 and 242 and 586 and 1 350 and 733 and 1 928.

Question: What about the Eosinophils (Balb/c mice; HDM-challenged (HDM + P140)) of the same compound?
Answer: The Eosinophils was 955 824 and 1 404 942 and 636 065 and 342 046 and 1 283 190 and 1 036 803 and 538 210 and 1 010 666.

Question: What about the Macrophages (Balb/c mice; HDM-challenged (HDM + P140)) of the same compound?
Answer: Its Macrophages is 58 705 and 118 771 and 314 326 and 125 002 and 34 364 and 38 709 and 29 121 and 73 491.

Question: What about the Neutrophils (Balb/c mice; HDM-challenged (HDM + P140)) of the same compound?
Answer: The Neutrophils was 606 700 and 510 027 and 500 004 and 147 616 and 371 317 and 487 119 and 284 503 and 24 426.

Question: And the T cells (Balb/c mice; HDM-challenged (HDM + P140))?
Answer: The T cells was 400 329 and 735 865 and 383 074 and 243 813 and 469 834 and 502 985 and 334 784 and 1 056 303.

Question: And the Total cells (Balb/c mice; HDM-challenged (HDM + P140))?
Answer: Its Total cells is 2140000 and 2992000 and 2190000 and 1010000 and 2310000 and 2220000 and 1270000 and 2410000.

Question: And the B cells (Balb/c mice; [2])?
Answer: The B cells was 2 297 and 44 668 and 22 879 and 11 101 and 7 660.

Question: And the DCs (Balb/c mice; [2])?
Answer: Its DCs is 0 and 484 and 461 and 319 and 160.

Question: What about the Eosinophils (Balb/c mice; [2]) of the same compound?
Answer: The Eosinophils was 124 514 and 450 346 and 448 074 and 205 568 and 239 527.

Question: And the Macrophages (Balb/c mice; [2])?
Answer: Its Macrophages is 130 734 and 267 885 and 360 987 and 177 815 and 73 725.

Question: What about the Neutrophils (Balb/c mice; [2]) of the same compound?
Answer: Its Neutrophils is 2 584 and 35 734 and 23 986 and 34 836 and 2 394.

Question: And the T cells (Balb/c mice; [2])?
Answer: The T cells was 57 711 and 323 623 and 294 011 and 208 439 and 86 810.

Question: And the Total cells (Balb/c mice; [2])?
Answer: The Total cells was 448000 and 1390000 and 1510000 and 815000 and 484000.

Question: And the “Inflammatory cell recruitment in BAL” value (Balb/c mice; HDM-challenged mice, vs solvent group)?
Answer: The value was “no effect”.

Question: And the “Increase of number of macrophages in BAL vs solvent group” value (Balb/c mice; [3])?
Answer: The value was 4.5 fold.

Question: What about the “Number of neutrophils in BAL, change vs solvent group” value (Balb/c mice; [3]) of the same compound?
Answer: Its value is −71%.

Question: And the “Number of B cells in BAL, change vs solvent group” value (Balb/c mice; [4])?
Answer: Its value is −40%.

Question: And the “Number of eosinophils in BAL, change vs solvent group” value (Balb/c mice; [4])?
Answer: Its value is −25%.

Question: What about the “Median survival of mice” value (MRL/lpr mice) of the same compound?
Answer: The value was 29 weeks.
